These results are taken from article PMC4021201, “Repositioning: the fast track to new anti-malarial medicines?” (Malaria Journal, 2014).

For data set [1], the system named is P. falciparum K1. In words: SYBR I dye DNA staining assay (Pfizer), P. falciparum K1.
Protocol: (§2) Cultures of P. falciparum 3D7 and K1 (both from David Baker, LSHTM) were maintained in O+ human erythrocytes (Research Red Cells and Blood Transfusion Service). 384-well assay plates contained 250 nL of compound at a serial dilution of 1:3 in 100% DMSO, starting from 200 µM (in the plate i.e. 20 µM final) and minimum and maximum controls. After addition of 50 μL of infected erythrocytes per well, plates were incubated at 37°C for three days in 5% CO2, 5% O2 and 90% N2. […] Percent anti-malarial activity was calculated relative to the minimum and maximum controls for each of the 11 drug concentrations and EC50 values determined from the resulting data plot.
In data set [2] the test system is P. falciparum 3D7. In words: SYBR I dye DNA staining assay (Pfizer), P. falciparum 3D7.
Protocol: as §2
The test system of data set [3] is P. falciparum NF54. In words: SYBR I EC50 determination assay (AstraZeneca). The format is cell-based. Conditions: Plasmodium falciparum; P. falciparum strain NF54; 72 h; read-out: Pf EC50. The text has this:
(§1) AZ also used a SYBR® I EC50 determination assay, but with P. falciparum NF54 (MRA-1000, MR4, ATCC, Manassas, VA, USA). The per cent inhibition with respect to the control was plotted against the logarithm of the drug concentration. The curve was fitted by non-linear regression using the sigmoidal dose–response (variable slope) formula to yield the concentration–response curves. The concentration at which 50% inhibition was observed was taken as the EC50 value of the compound. A cytotoxicity assay was also performed by AZ, using the human hepatoma Hep G2 cell line and the per cent inhibition and EC50 values were calculated as described for P. falciparum.
AstraZeneca. This group also used a SYBR® I IC50 determination assay. Compounds were serially diluted in 384 well plates (C3570, Corning Life Sciences). 1 µL of compound was dispensed in a 10 point concentration response format using a Biomek Fx liquid dispenser. To this, 50 µL of P. falciparum NF54 (MRA-1000, MR4, ATCC, Manassas, Virginia) ring stage culture at 2% parasitemia and 0.3 % hematocrit was added using a multidrop dispenser. […] After incubation, the % parasitemia in one of the untreated culture control wells was determined by light microscopy. […] Green fluorescence (485 nm excitation/ 530 nm emission) was measured using the Safire 2 fluorimeter (Tecan Instruments). […]

The subject of data set [4] is human hepatoma Hep G2 cell line. In words: Hep G2 cytotoxicity assay (AstraZeneca). The format is cell-based. Conditions: HepG2, 72 h.
Source text: as §1
The human hepatoma Hep G2 cell line was used for the cytotoxicity assay. 1 µL of compound was dispensed in a 10 point concentration response format using a Biomek Fx liquid dispenser into white sterile 384-well opaque bottom plates (C3570, Corning Life Sciences). To this, 50 µL of Hep G2 cells at 3000 cells/well was added using a Multidrop dispenser. The plates were then incubated at 37 °C for 72 h in a 5% CO2 incubator. Resazurin at a final concentration of 10 µM was added to all wells and the plates were incubated at room temperature for 4 h. Fluorescence (excitation 535 nm; emission 590 nm) was measured in a Safire 2 fluorimeter. The % inhibition with respect to the control was plotted against the logarithm of the drug concentration. […]

Data set [5] concerns P. berghei. In words: Plasmodium berghei four-day suppression test. The format is in vivo. Conditions: 100–200 mg/kg BID oral, four days, BALB/c mice, with oral aminobenzotriazole 100 mg/kg. As to the method: AZ compounds were tested by the company for in vivo efficacy in a standard four-day suppression test using the rodent malaria parasite P. berghei. All animal experimentation protocols were approved by the Institutional Animal Ethics Committee registered with the Government of India (Registration No: 5/1999/CPCSEA). Adult male BALB/c mice (purchased from RCC Laboratories, Hyderabad, India) were used for efficacy studies. Animals were randomly distributed to cages quarantined for one week with veterinary examination and then taken into experimentation. Feed and water were given ad libitum. Briefly, male BALB/c mice were infected intraperitoneally with 2×10^7 infected erythrocytes on day 0. […] On day 3, per cent parasitaemia was estimated microscopically from a Giemsa-stained blood smear. The effect of the test compound on parasite growth was calculated as the difference between the mean value of the control group (taken as 100%) and those of the experimental group and expressed as per cent reduction. Reference anti-malarial compounds (chloroquine and artemisinin) were used as positive controls and the results obtained matched those published in the literature. Pharmacokinetics were analysed in healthy as well as infected mice. Data from healthy mice were used for designing the dosing regimen for the efficacy studies. […]

On the set-up of data set [6]: method as in unpublished data provided by Pfizer Inc. Conditions: ref unpublished data provided by Pfizer Inc; cited from earlier work.
Details of data set [7]: method as in data provided by Pfizer. Conditions: human, single doses from 10 mg to 480 mg; ref data provided by Pfizer; cited from earlier work.
In data set [8] the test system is P. falciparum Pf3D7^0087/N9. In words: Plasmodium falciparum huSCID humanized mouse model, four-day test.
Protocol: In vivo testing using this model was performed by GSK at Tres Cantos, against P. falciparum 3D7 (in vivo strain Pf3D7^0087/N9generated by GSK using Pf3D7 obtained from Eduardo Dei-Cas, Institute Pasteur, Lille, France [36]) growing in peripheral blood of female NOD-scid IL-2Rγ^null mice engrafted with human erythrocytes, i e, a ‘humanized’ mouse model, following published protocols [36, 37]. Briefly, animals were infected intravenously with 20×10^6 infected erythrocytes on day 0. […] Dosing was initiated at the maximum tolerated dose in mice on day 3 after infection and continued once daily for four days. Each experimental group was n = 3 mice unless otherwise stated. Control animals received vehicle only and a quality control assay used chloroquine at target doses of 3 mg/kg and 7 mg/kg. Venous blood samples for parasitology (2 μL) were taken at days 3, 5, and 7 after infection. Anti-malarial efficacy was assessed using a standard four-day test (i e, at day 7) and blood parasitaemia was measured by fluorescence-activated cell sorting (FACS) analysis [38]. The limit of detection (per cent of P. falciparum) was 0.01%. The number of parasites ×10^6 cells was recorded and data were analysed by non-linear fitting to a logistic equation of log10 (per cent parasitaemia at day 7 after infection) versus the dose level administered.
Per cent parasitaemia at day 7 after infection in treated versus control animals was analysed using a one factor ANOVA with Tukey’s post-test analysis. […] ED90 was calculated similarly. Analysis was performed using WinNonlin 5.2 and GraphPad Prism 5.0.
Data set [9] has as its target hERG (Homo sapiens, UniProt Q12809). In words: Independently run hERG assay.
Data set [10] is described as follows: Pharmacokinetics in P. falciparum-infected humanized mice. Conditions: for Cmax / Tmax: NOD-scid IL-2Rγ^null, mouse, po; for Cmax / Tmax / AUC (0–t): whole blood; for DNAUC(0–t): dose-normalized AUC(0–t); for DNAUC(0–t) / AUC (0–t): mean (SD).
Protocol: The pharmacokinetics of compounds after oral administration was determined concurrently in the same mice used for the therapeutic efficacy assay. Samples were taken at 0.25, 0.5, 1, 3, 6, 8, and 24 hours after the first dose. Compound levels were measured in 25 μL blood samples that were mixed with 25 μL of saponin (0.1% in water) and processed under standard liquid–liquid extraction conditions [39]. Pharmacokinetic parameters were calculated using WinNonlin 5.2 non-compartmental analysis.
Where [11] appears, read: Plasmodium falciparum, K1, read-out: EC50 K1.
Setting [12] is: Plasmodium falciparum, 3D7, read-out: EC50 3D7.

The structures appear in SMILES notation. “And” between values parts separate entries of the source, which are not always exact repeats. Identical values can stand only once. Like-named read-outs stand apart in the source and are kept apart here.

Chain of hERG (Q12809 whole entry): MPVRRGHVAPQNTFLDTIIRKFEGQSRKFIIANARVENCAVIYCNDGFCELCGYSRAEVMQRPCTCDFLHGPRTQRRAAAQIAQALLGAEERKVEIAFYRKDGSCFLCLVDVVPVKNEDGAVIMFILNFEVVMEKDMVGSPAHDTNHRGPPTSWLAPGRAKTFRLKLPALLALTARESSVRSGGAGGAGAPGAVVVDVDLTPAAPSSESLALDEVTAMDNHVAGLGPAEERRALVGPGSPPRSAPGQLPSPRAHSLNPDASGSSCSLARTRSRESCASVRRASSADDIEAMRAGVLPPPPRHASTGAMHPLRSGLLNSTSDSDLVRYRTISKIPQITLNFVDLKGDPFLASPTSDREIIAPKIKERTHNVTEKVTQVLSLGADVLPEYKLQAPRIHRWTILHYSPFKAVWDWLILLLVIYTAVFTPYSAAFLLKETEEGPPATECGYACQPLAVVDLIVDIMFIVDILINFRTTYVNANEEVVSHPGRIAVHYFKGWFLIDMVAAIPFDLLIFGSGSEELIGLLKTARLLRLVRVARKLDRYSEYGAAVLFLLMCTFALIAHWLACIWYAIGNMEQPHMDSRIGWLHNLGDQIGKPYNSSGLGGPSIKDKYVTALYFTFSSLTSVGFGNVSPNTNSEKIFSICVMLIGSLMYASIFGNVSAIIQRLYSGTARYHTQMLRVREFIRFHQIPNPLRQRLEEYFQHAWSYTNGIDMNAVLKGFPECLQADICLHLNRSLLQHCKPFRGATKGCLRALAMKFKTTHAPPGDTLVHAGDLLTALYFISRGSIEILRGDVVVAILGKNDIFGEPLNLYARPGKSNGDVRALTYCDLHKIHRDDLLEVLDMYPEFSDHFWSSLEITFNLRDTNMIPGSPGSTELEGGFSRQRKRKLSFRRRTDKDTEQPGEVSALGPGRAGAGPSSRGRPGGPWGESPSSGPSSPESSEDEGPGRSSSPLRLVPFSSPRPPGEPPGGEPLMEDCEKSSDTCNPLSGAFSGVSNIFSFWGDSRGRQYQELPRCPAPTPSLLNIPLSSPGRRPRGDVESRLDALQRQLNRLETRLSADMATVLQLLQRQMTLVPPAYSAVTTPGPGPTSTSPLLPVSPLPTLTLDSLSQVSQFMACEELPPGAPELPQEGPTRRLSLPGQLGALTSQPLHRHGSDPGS

Take `CCNCc1cncc(-c2ccc3[nH]nc(-c4nc5c(F)cc(F)cc5[nH]4)c3c2)c1C` [AG-024322]: the EC50 was 400 nM in data set [1] (read-out: EC50 K1, mean (95% CI), Pfizer SYBR I fluorescence assay) and 700 nM in data set [2] (read-out: EC50 3D7, mean (95% CI), Pfizer SYBR I fluorescence assay).
As to `CC(C)Oc1cc(Nc2nc(N[C@@H](C)c3ccc(F)cn3)ncc2Cl)n[nH]1` [AZ-1], the concentration for a half-maximal effect (EC50) was 600 nM in data set [3] and 10400 nM in data set [4]. Besides, the “growth inhibition in P. berghei-infected mice” value in data set [5] was 50–60%.
Take `COc1ccc(C(=O)c2cn(C(C)C)c3ncnc(N)c23)cc1NC(=O)Nc1ccc(Cl)cc1Cl` [CE-245677]: the “human plasma level with significant central nervous system adverse events” value in data set [6] is recorded as ~ 1.5 μM. Also, the EC50 stood at 800 nM in [1] (setting [11]) and 1100 nM in [2] (setting [12]).
`Cc1nc2cnccc2n1-c1ccc(C(=O)N2CCC(=C3c4ccc(Cl)cc4CCc4cccnc43)CC2)cc1` [UK-112,214]: the Cmax in [7] was 14 to 4145 ng/mL; in data set [10] (100 mg/kg), 8610 ng/mL; in [10] (300 mg/kg) it was 17600 ng/mL. In [8] (Plasmodium falciparum, in Mus musculus, parasitaemia at day 7 after infection, once daily for four days, mean (95% CI)), the 50% effective dose (ED50) is 80.6 mg/kg. For the same compound, the AUCED90 in [8] (blood exposure needed to inhibit parasitaemia at day 7 by 90% vs vehicle) was 111.5 μg · h · mL^−1 · day^−1 and 111.5 (106.6, 121.1) μg · h · mL^−1 · day^−1. Further, the ED90 in data set [8] (parasitaemia at day 7 after infection, once daily for four days, mean (95% CI)) was 131.3 mg/kg and 131.3 (112.3, 156.7) mg/kg. The hERG in data set [9] stood at 2.8 µM. Also, the half-maximal effective concentration (EC50) in [1] (setting [11]) was 600 nM; in data set [2] (setting [12]) it was 550 nM. Besides, the figures for the Tmax in data set [10] (100 mg/kg) and in data set [10] (300 mg/kg) were 4 h and 3.3 h, respectively. Moreover, the entries for the “DNAUC(0–t)” value in [10] (target dose 100 mg/kg oral) and in [10] (target dose 300 mg/kg oral) were 0.859 (0.32) μg · h · mL^−1 · day^−1 and 1.03 (0.45) μg · h · mL^−1 · day^−1, respectively. Moreover, the “AUC (0–t)” value in data set [10] (target dose 100 mg/kg oral) is 72.1 (2.7) μg · h · mL; in [10] (target dose 300 mg/kg oral), 231 (101) μg · h · mL.

What is called EC50 is the concentration that produces a half-maximal response. The Cmax is the peak of the concentration-time curve. Broadly, the ED50 is the dose that gives a 50% effect, or the effect in half of the subjects. Low values mean greater potency, high ones weaker potency. Usually Tmax stands for the time from dosing to the highest level.
